Reference: US20220133895A1, “CAMPTOTHECIN-BASED DIMER COMPOUND, ANTICANCER DRUG AND METHOD OF ELIMINATING CANCER STEM CELL” (HUAZHONG UNIVERSITY OF SCIENCE AND TECHNOLOGY, priority 2020, published 2022)

Assays:
[1] = Reduction responsiveness in GSH solution, by mass spectrometry; assay type: physicochemical; settings: 100 mM GSH aqueous solution, stirred 12 hours
Procedure: Study on the reduction responsiveness of compounds was performed as follows.
A small amount of the compound CN was added to 100 mM GSH aqueous solution and stirred for 12 hours.

[2] = target: T1, IDO (Homo sapiens, UniProt P14902); assay: In vitro IDO inhibitory activity in IFN-γ-stimulated Hela cells; assay type: cell-based
T1 construct: endogenous in cells; host or cells: HeLa cells stimulated with human IFN-γ
Procedure: The inhibitory activity of the compound CN on IDO in vitro was investigated.
Hela cells were plated with a 96-well plate at 4,000 cells/well in DMEM complete medium containing 80 ng/ml of human IFN-γ, and incubated with a series of DMEM medium containing CN or NLG at a concentration of 0 μM, 0.1 μM, 1 μM, 10 μM, and 100 μM for 24 hours after 12 hours. 150 ul culture medium was aspirated, 75 ul trichloroacetic acid aqueous solution (30% w/v) was added, incubated at 50° C. for 30 min, and centrifuged at 3000 rpm for 10 minutes. 100 ul of the supernatant was collected, 100 ul of p-dimethylaminobenzaldehyde glacial acetic acid solution (2%, w/v) was added, placed at room temperature for 10 minutes, and the absorption was detected at 492 nm.

[3] = system: mouse 4T1 breast cancer orthotopic tumor; assay: Anti-tumor activity of CN@PHF, tail vein, 4T1 orthotopic model; assay type: in vivo; settings: CN 2.4 mg/kg, days 1, 4, 7, 10
Source text: The anti-tumor activity of CN@PHF in the mouse 4T1 breast cancer orthotopic tumor model was investigated and the specific steps were proceeded as follows:
At the age of 6 weeks, 20 g female BALB/c mice were inoculated with 5×10^5 cells of mouse breast cancer 4T1 cell suspension into the fourth pair of left breast pads on the abdomen of female BALB/c mice to establish a mouse model of 4T1 tumor in situ. When the tumor volume in situ was about 100 mm^3, the mice were randomly divided into 5 groups, 10 mice in each group, and were injected with normal saline, CN, Taxol, Irinotecan, CN@PHF through the tail vein. The dose of CN was 2.4 mg/kg, and the concentrations of Taxol and Irinotecan were the same as the molar concentration of CN. The administration time on the first day was recorded as the first day, and then the above-mentioned doses were administered on the 4th, 7th, and 10th days. From the 1st day, the mouse body weight and tumor volume were measured every other day, and the tumor volume-time curve was drawn. The mice were sacrificed on the 19th day, the tumor in situ was removed, weighed, and photographed. Tumors were stained with HE and TUNEL to study tumor cell apoptosis and stained with Ki67 to study tumor cell proliferation.

[4] = system: mouse 4T1 breast cancer orthotopic tumor; assay: In vivo anti-tumor activity, intratumoral injection, 4T1 orthotopic model; settings: for tumor suppression rate: BALB/c mice, CPT 1 mg/kg or CN 2.4 mg/kg intratumoral, NLG 500 ug/mouse gavage
[5] = system: mouse 4T1 breast cancer orthotopic tumor; assay: Effect on antitumor immune response (DC maturation, Treg) in 4T1 tumor mice; assay type: in vivo; settings: for regulatory T cells (Treg) in tumors: flow cytometry CD3, CD4, CD25, FoxP3
Source text: The effect of the compound CN on antitumor immune response is studied, the specific steps were proceeded as follows. The tumor and adjacent lymph nodes of the mice in Example 4 were stripped. […] The adjacent lymph nodes were squeezed through a 200-mesh screen to prepare a single cell suspension, and the maturation of lymph node dendritic cells (DC cells, CD11c, CD80, CD86) was studied with antibodies.

[6] = system: 4T1 (breast cancer) cells; assay: In vitro induction of immunogenic cell death; assay type: cell-based, mouse; settings: 4T1 cells, 10 μM, 48 hours
Procedure: The in vitro activity of the compound CN in inducing immunogenic cell death was evaluated.
4T1 (breast cancer) cells were seeded into a 6-well plate at a density of 1×10^5 cells per well and cultured overnight. The cells were treated with PBS, CPT (camptothecin), NLG (IDO inhibitor), CPT+NLG, CN (all drug concentrations were 10 μM) for 48 hours. The supernatant was collected and cultured to detect the release of ATP and HMGB-1. The cells were trypsinized, then incubated with CRT antibody on ice for 30 minutes in the dark, and analyzed by flow cytometry. In addition, CRT eversion was also studied by immunofluorescence imaging. 4T1 cells were seeded into a confocal culture dish at a density of 1×10^5 cells per well and cultured overnight. The cells were treated with PBS, CPT (camptothecin), NLG (IDO inhibitor), CPT+NLG, CN (all drug concentrations were 10 μM) for 48 hours. The cells were washed twice with PBS and incubated with CRT antibody for 30 minutes. Washing was performed twice with PBS, and fixing was then performed with 4% paraformaldehyde. After washing was performed twice with PBS again, the nucleus was stained with DAPI for 30 minutes. After washing was performed twice, the cells were imaged with a confocal microscope.

[7] = system: cancer stem cells; assay: Effect on cancer stem cells (cell cycle, 3D tumor spheroids) from treated 4T1 tumors; assay type: in vivo, mouse; settings: for G1-S cell cycle / dormancy of cancer stem cells: CD133, EdU, hoechst33342 flow cytometry
Procedure: The effect of the compound CN on cancer stem cells is studied, the specific steps were proceeded as follows. In the single cell suspension prepared in Example 6, the cell cycle (CD133, EdU, hoechst33342) of cancer stem cells was stained with antibodies, and the dormancy of the cancer stem cells was analyzed by flow cytometry. […] Fibrinogen was diluted to 20 mg/mL with T7 buffer (pH 7.4, 50 mM Tris, 150 mM NaCl), and then mixed with the above cell suspension in equal volume. 1 μL of thrombin (0.1 U/μL) was added to the 96-well plate in advance, and 50 μL of the mixed cell suspension was added. […] On the seventh day, the cell pellets in the 96-well plate were photographed and counted. The particle size of tumor cell spheroids was measured, and the number of tumor cell spheroids was counted to characterize the stemness and tumor-forming ability of tumor cells.

[8] = system: mouse 4T1 breast cancer orthotopic tumor; assay: Influence on the cancer stem cell niche, 4T1 orthotopic model; assay type: in vivo; settings: tail vein, day 13, CD133, EdU, hoechst33342
Procedure: At the age of 6 weeks, 20 g female BALB/c mice were inoculated with 5×10^5 cells of mouse breast cancer 4T1 cell suspension into the fourth pair of left breast pads on the abdomen of female BALB/c mice to establish a mouse model of 4T1 tumor in situ. […] The administration time on the first day was recorded as the first day, and then the above-mentioned doses were administered on the 4th, 7th, and 10th days. On the 13th day, 50 μL of Edu (8 mg/ml) was injected into the tumor. Three hours later, the mice were sacrificed, the tumor in situ was stripped and divided into two parts. […] Flow cytometric analysis of the cell cycle (CD133, EdU, hoechst33342) of cancer stem cells was carried out to investigate the effect of drugs on the dormancy of cancer stem cells.

T1 sequence (P14902 whole entry): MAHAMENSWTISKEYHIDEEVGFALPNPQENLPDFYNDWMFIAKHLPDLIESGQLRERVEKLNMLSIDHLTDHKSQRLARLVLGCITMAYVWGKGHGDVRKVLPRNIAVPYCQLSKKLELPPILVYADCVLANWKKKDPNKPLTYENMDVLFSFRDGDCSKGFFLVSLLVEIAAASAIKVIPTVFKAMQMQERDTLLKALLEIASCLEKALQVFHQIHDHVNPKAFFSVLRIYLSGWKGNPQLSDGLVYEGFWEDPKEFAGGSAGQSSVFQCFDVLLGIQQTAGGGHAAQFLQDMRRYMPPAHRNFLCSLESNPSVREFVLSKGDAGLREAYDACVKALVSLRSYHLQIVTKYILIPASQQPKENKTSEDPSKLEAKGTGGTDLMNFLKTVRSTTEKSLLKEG

CC[C@@]1(OC(=O)OCSSCOC(=O)OC(CC2c3ccccc3-c3cncn32)C2CCCCC2)C(=O)OCc2c1cc1n(c2=O)Cc2cc3ccccc3nc2-1 (stereo partly drawn) [CN]
reduction responsiveness (degradation products) [1]: degraded to the original camptothecin and NLG919 | IC50 [2]: ~80 nM | inhibition at 1 µM ([2]; HeLa, read-out: IDO inhibition rate): ~100% | tumor volume [3]: significantly smaller than the normal saline group and the positive drugs Taxol and Irinotecan groups | tumor suppression rate ([4]; days 1, 4, 7, 10): 85% | tumor volume ([4]; intratumoral injection, 2.4 mg/kg, days 1, 4, 7, 10): significantly smaller than that of the other groups | tumor elimination ([4]; intratumoral injection, 8 mice per group, day 15): one tumor was completely eliminated | weight of the tumor ([4]; intratumoral injection, sacrificed day 15): significantly lower than that of the other groups | regulatory T cells (Treg) in tumors [5]: reverse the increase in Treg caused by CPT | DC maturation in lymph nodes adjacent to tumors ([5]; flow cytometry CD11c, CD80, CD86): increased significantly | proportion of mature DC relative to CPT group ([5]; lymph nodes adjacent to tumors): about twice that of CPT group | ATP release relative to CPT and CPT+NLG groups [6]: 2-3 times | CRT eversion, confocal imaging [6]: more CRT eversion | ability to induce CRT eversion relative to CPT group, flow cytometry [6]: about 1.5 times | ability to induce HMGB-1 [6]: significantly stronger than that of the other groups | G1-S cell cycle / dormancy of cancer stem cells [7]: significantly reduce the G1/S ratio | number and particle size of 3D spheres of tumor cells ([7]; fibrin gel culture, seventh day): significantly lower than those in the other groups

CC[C@@]1(O)C(=O)OCc2c1cc1n(c2=O)Cc2cc3ccccc3nc2-1 [CPT, camptothecin]
tumor suppression rate ([4]; days 1, 4, 7, 10): 61.9% | regulatory T cells (Treg) in tumors [5]: significant increase in Treg | G1-S cell cycle / dormancy of cancer stem cells [7]: block the G1-S cell cycle of cancer stem cells

CCc1c2c(nc3ccc(OC(=O)N4CCC(N5CCCCC5)CC4)cc13)-c1cc3c(c(=O)n1C2)COC(=O)[C@]3(O)CC [Irinotecan]
dormancy / cycle inhibition of cancer stem cells [8]: increase the dormancy of cancer stem cells
